Test results taken from PubChem BioAssay AID1117348 (Cheminformatics & Chemogenomics Research Group (CCRG), …, 2015).
Activity calls are given as the source filed them. No rule for the calls is given here.

These molecules were tested on HeLa cell cycle, increased S-phase population (assay: HeLa S-phase population increase, dose response, cell-based, IC50 (AID 1117348)).

| Structure (SMILES) | IC50 |
| --- | --- |
| COc1ccc2cc1Oc1ccc(cc1)C[C@H]1c3c(cc4c(c3Oc3cc5c(cc3OC)CCN(C)[C@@H]5C2)OCO4)CCN1C | > 10 µM (inactive) |
| Cc1cc(CC(C)CC(C)(C)C)n(O)c(=O)c1 (stereo unspecified) | > 10 µM (inactive) |
| Cc1cc2c(C(C)C)c(O)c(O)c(C=O)c2c(O)c1-c1c(C)cc2c(C(C)C)c(O)c(O)c(C=O)c2c1O | > 10 µM (inactive) |
| CCCNCC(O)COc1ccccc1C(=O)CCc1ccccc1 (stereo unspecified) | > 10 µM (inactive) |
| O=c1[nH]c(=O)n([C@H]2C[C@H](O)[C@@H](CO)O2)cc1Br | > 10 µM (inactive) |
| C[C@]12CC[C@@H]3c4ccc(O)cc4CC[C@H]3[C@@H]1CC[C@@H]2OC(=O)CCC1CCCC1 | > 10 µM (inactive) |
| O=C(c1cc(O)c(O)c(O)c1)c1ccc(O)c(O)c1O | > 10 µM (inactive) |
| NC(N)=NN=C(/C=C/c1ccc([N+](=O)[O-])o1)/C=C/c1ccc([N+](=O)[O-])o1 | > 10 µM (inactive) |
| CC[C@@]1(O)C(=O)OCc2c1cc1n(c2=O)Cc2cc3c(CN(C)C)c(O)ccc3nc2-1 | 0.082 µM |
| CCc1oc2ccccc2c1C(=O)c1cc(I)c(O)c(I)c1 | > 10 µM (inactive) |
| CC(CC1c2ccccc2CCc2ccccc21)CN(C)C (stereo unspecified) | > 10 µM (inactive) |
| CC(=O)Nc1ccn(C2COC(COC(=O)c3ccccc3)O2)c(=O)n1 (stereo unspecified) | 0.312 µM |
| COC(=O)Nc1nc2ccc(C(=O)c3cccs3)cc2[nH]1 | > 10 µM (inactive) |
| CCCCCCCCCCCCCCCC[N+](C)(C)Cc1ccccc1 | > 10 µM (inactive) |
| CCN(CC)CCNC(=O)c1c(C)[nH]c(/C=C2\C(=O)Nc3ccc(F)cc32)c1C | > 10 µM (inactive) |
| O[C@@H](CNC[C@H](O)[C@H]1CCc2cc(F)ccc2O1)[C@@H]1CCc2cc(F)ccc2O1 | > 10 µM (inactive) |
| CCN1/C(=C/C=C/c2sc3ccccc3[n+]2CC)Sc2ccccc21 | > 10 µM (inactive) |
| CCCSc1ccc2nc(NC(=O)OC)[nH]c2c1 | > 10 µM (inactive) |
| O=C(Nc1ccc([N+](=O)[O-])cc1Cl)c1cc(Cl)ccc1O | > 10 µM (inactive) |
| CCN(CC)CCCC(C)Nc1c2ccc(Cl)cc2nc2ccc(OC)cc12 (stereo unspecified) | 2.26 µM |
| Cc1ccc(Nc2nccc(N(C)c3ccc4c(C)n(C)nc4c3)n2)cc1S(N)(=O)=O | > 10 µM (inactive) |
| COc1cccc2c1C(=O)c1c(O)c3c(c(O)c1C2=O)C[C@@](O)(C(C)=O)C[C@@H]3O[C@H]1C[C@H](N)[C@H](O)[C@H](C)O1 | 9.6 µM (inactive) |
| CN(C)/N=N/c1nc[nH]c1C(N)=O | > 10 µM (inactive) |

| Structure (SMILES) | IC50 |
| --- | --- |
| Nc1nc(=S)c2[nH]cnc2[nH]1 | > 10 µM (inactive) |
| O=C1c2c(O)cccc2Cc2cccc(O)c21 | > 10 µM (inactive) |
| CN(C)CCOC(c1ccccc1)c1ccc(Br)cc1 (stereo unspecified) | > 10 µM (inactive) |
| Cn1cnc([N+](=O)[O-])c1Sc1ncnc2nc[nH]c12 | > 10 µM (inactive) |
| COc1cc(NC(C)CCCN)c2ncccc2c1 (stereo unspecified) | > 10 µM (inactive) |
| Oc1c(Cl)cc(Cl)cc1Sc1cc(Cl)cc(Cl)c1O | > 10 µM (inactive) |
| [O-][n+]1ccccc1SSc1cccc[n+]1[O-] | > 10 µM (inactive) |
| Cc1nc(N)nc(N)c1-c1ccc(Cl)c(Cl)c1 | > 10 µM (inactive) |
| CCOc1ccc2nc3cc(N)ccc3c(N)c2c1 | > 10 µM (inactive) |
| O=c1[nH]c(=O)n([C@H]2C[C@H](O)[C@@H](CO)O2)cc1I | > 10 µM (inactive) |
| COc1cc([C@@H]2c3cc4c(cc3[C@H](O)[C@H]3COC(=O)[C@H]23)OCO4)cc(OC)c1OC | > 10 µM (inactive) |
| CCC(C)(C)C(=O)O[C@H]1C[C@@H](C)C=C2C=C[C@H](C)[C@H](CC[C@@H]3C[C@@H](O)CC(=O)O3)[C@H]21 | > 10 µM (inactive) |
| CC(C)c1c(C(=O)Nc2ccccc2)c(-c2ccccc2)c(-c2ccc(F)cc2)n1CC[C@@H](O)C[C@@H](O)CC(=O)O | > 10 µM (inactive) |
| Oc1ccc([C@H]2CNCc3c2ccc(O)c3O)cc1O | > 10 µM (inactive) |
| CCCCCCCCCCCCCC[N+](C)(C)C | > 10 µM (inactive) |
| Cc1ccc2c(c1)c1c3n2CCNC3CCC1 (stereo unspecified) | > 10 µM (inactive) |
| CC(=O)O[C@@]12CO[C@@H]1C[C@H](O)[C@@]1(C)C(=O)[C@H](O)C3=C(C)[C@@H](OC(=O)[C@H](O)[C@@H](NC(=O)OC(C)(C)C)c4ccccc4)C[C@@](O)([C@@H](OC(=O)c4ccccc4)[C@H]21)C3(C)C | > 10 µM (inactive) |
| Nc1nc(Cl)nc2c1ncn2[C@@H]1O[C@H](CO)[C@@H](O)[C@@H]1F | > 10 µM (inactive) |
| C1CN(P2(N3CC3)=NP(N3CC3)(N3CC3)=NP(N3CC3)(N3CC3)=N2)CCO1 (stereo unspecified) | > 10 µM (inactive) |
| COCc1c(C(C)C)nc(C(C)C)c(/C=C/[C@@H](O)C[C@@H](O)CC(=O)O)c1-c1ccc(F)cc1 | > 10 µM (inactive) |
| O=C1C(I)=CC(=C(c2cc(I)c(O)c(I)c2)c2ccccc2C(=O)O)C=C1I | > 10 µM (inactive) |
| CO[C@@]12[C@H](COC(N)=O)C3=C(C(=O)C(C)=C(N)C3=O)N1C[C@@H]1N[C@@H]12 | 0.143 µM |
| CCCCCCCCCCCC[N+](C)(C)Cc1ccccc1 | > 10 µM (inactive) |

| Structure (SMILES) | IC50 |
| --- | --- |
| CCCCOC(=O)c1ccc(N)cc1 | > 10 µM (inactive) |
| CC(=O)N(O)CCCCCNC(=O)CCC(=O)N(O)CCCCCNC(=O)CCC(=O)N(O)CCCCCN | > 10 µM (inactive) |
| CC(=O)[C@]1(O)Cc2c(O)c3c(c(O)c2[C@@H](O[C@H]2C[C@H](N)[C@H](O)[C@H](C)O2)C1)C(=O)c1ccccc1C3=O | > 10 µM (inactive) |
| CCC(COC(=O)c1cc(OC)c(OC)c(OC)c1)(c1ccccc1)N(C)C (stereo unspecified) | > 10 µM (inactive) |
| COc1cccc2c1C(=O)c1c(O)c3c(c(O)c1C2=O)C[C@@](O)(C(=O)CO)C[C@@H]3O[C@H]1C[C@H](N)[C@H](O[C@@H]2CCCCO2)[C@H](C)O1 | 1.75 µM |
| CN(C)c1ccc2nc3ccc(=[N+](C)C)cc-3sc2c1 | > 10 µM (inactive) |
| CCCCC(CC)CN=C(N)NC(N)=NCCCCCCN=C(N)NC(N)=NCC(CC)CCCC (stereo unspecified) | > 10 µM (inactive) |
| C[n+]1c2cc(N)ccc2cc2ccc(N)cc21 (tested in a mixture with another compound) | 1.96 µM |
| CC(C)=CCOc1ccc(/C=C/C(=O)c2ccc(OCC=C(C)C)cc2OCC(=O)O)cc1 | > 10 µM (inactive) |
| O=c1[nH]c(=O)n([C@H]2C[C@H](O)[C@@H](CO)O2)cc1F | 0.169 µM |
| Cc1ccc(S(=O)(=O)NC(=O)NN2CC3CCCC3C2)cc1 (stereo unspecified) | > 10 µM (inactive) |
| CC(C)(C)C1CCC(CC2=C(O)c3ccccc3C(=O)C2=O)CC1 (stereo unspecified) | > 10 µM (inactive) |
| CCCCCCCCCCCC(=O)[O][Sn]([CH2]CCC)([CH2]CCC)[O]C(=O)CCCCCCCCCCC | > 10 µM (inactive) |
| CC[n+]1c(-c2ccccc2)c2cc(N)ccc2c2ccc(N)cc21 | > 10 µM (inactive) |
| OC[C@H]1O[C@@H](n2cnc3c(=S)nc[nH]c32)[C@H](O)[C@@H]1O | > 10 µM (inactive) |
| COC(=O)c1nc(Cl)c(Cl)nc1N | > 10 µM (inactive) |
| Nc1nc(F)nc2c1ncn2[C@@H]1O[C@H](CO)[C@@H](O)[C@@H]1O | > 10 µM (inactive) |
| Cc1cc(O)c2ccccc2c1O | > 10 µM (inactive) |
| CCCCCCCCCCOCC(O)CN (stereo unspecified) | > 10 µM (inactive) |
| CN(C)CCC=C1c2ccccc2CCc2ccccc21 | > 10 µM (inactive) |
| COc1cc(-c2ccc(=O)[nH]n2)ccc1OC(F)F | > 10 µM (inactive) |
| COC(=O)Nc1nc2ccc(Sc3ccccc3)cc2[nH]1 | > 10 µM (inactive) |
| Cc1ccc(CCn2c3c(c4cc(Cl)ccc42)CN(C)CC3)cn1 | > 10 µM (inactive) |

| Structure (SMILES) | IC50 |
| --- | --- |
| O=C1[C@H]2CCCC[C@H]2C(=O)N1CCCCN1CCN(c2nsc3ccccc23)CC1 | > 10 µM (inactive) |
| COC(=O)Nc1nc2ccc(C(=O)C3CC3)cc2[nH]1 | > 10 µM (inactive) |
| CO[C@@H]1[C@@H](OC)[C@H](C)[C@@](O)(CC(=O)O)O[C@H]1[C@H](C)[C@H]1O[C@@]2(CC[C@@](C)([C@H]3CC[C@@](C)([C@@H]4O[C@@H]([C@H]5O[C@](C)(O)[C@H](C)C[C@@H]5C)C[C@@H]4OC4C[C@H](OC)[C@@H](OC)[C@H](C)O4)O3)O2)C[C@H](O)[C@H]1C (stereo partly specified) | > 10 µM (inactive) |
| COC(=O)[C@H]1[C@H]2C[C@@H]3c4[nH]c5cc(OC)ccc5c4CCN3C[C@H]2C[C@@H](OC(=O)/C=C/c2ccc(O)c(OC)c2)[C@@H]1OC | > 10 µM (inactive) |
| CC(=O)Oc1ccc(C2(c3ccc(OC(C)=O)cc3)Oc3ccccc3NC2=O)cc1 | > 10 µM (inactive) |
| Fc1ccc(C(OCCN2CCN(CCCc3ccccc3)CC2)c2ccc(F)cc2)cc1 | > 10 µM (inactive) |
| Cc1ccc2nc(N)[nH]c(=O)c2c1Sc1ccncc1 | > 10 µM (inactive) |
| C[C@@H](O[C@H]1OCCN(Cc2n[nH]c(=O)[nH]2)[C@H]1c1ccc(F)cc1)c1cc(C(F)(F)F)cc(C(F)(F)F)c1 | > 10 µM (inactive) |
| CC(C)(C)C(=O)OCOP(=O)(COCCn1cnc2c(N)ncnc21)OCOC(=O)C(C)(C)C | 0.0608 µM |
| O=C(NOCC1CC1)c1ccc(F)c(F)c1Nc1ccc(I)cc1Cl | > 10 µM (inactive) |
| NCCCC[C@H](N[C@@H](CCc1ccccc1)C(=O)O)C(=O)N1CCC[C@H]1C(=O)O | > 10 µM (inactive) |
| CCc1oc2ccccc2c1C(=O)c1cc(Br)c(O)c(Br)c1 | > 10 µM (inactive) |
| O=C(O)CCc1nc2ccccc2[nH]1 | > 10 µM (inactive) |
| CC(C)n1c(/C=C/[C@@H](O)C[C@@H](O)CC(=O)O)c(-c2ccc(F)cc2)c2ccccc21 | > 10 µM (inactive) |
| CCCCc1ccc2nc(NC(=O)OC)[nH]c2c1 | > 10 µM (inactive) |
| C[C@@]12C(=O)OC(=O)[C@]1(C)C1CCC2O1 | > 10 µM (inactive) |
| CCCCCCCCCCCCNCCNCCNCC(=O)O | > 10 µM (inactive) |
| CCN(CCCCOC(=O)c1ccc(OC)c(OC)c1)C(C)Cc1ccc(OC)cc1 (stereo unspecified) | > 10 µM (inactive) |
| O=C(CCBr)N1CCN(C(=O)CCBr)CC1 | > 10 µM (inactive) |
| CC(C)=CCNc1ncnc2c1ncn2[C@@H]1O[C@H](CO)[C@@H](O)[C@H]1O | > 10 µM (inactive) |
| CCCCC1C(=O)N(c2ccccc2)N(c2ccc(O)cc2)C1=O (stereo unspecified) | > 10 µM (inactive) |
| Clc1ccc(Nc2nnc(Cc3ccncc3)c3ccccc23)cc1 | > 10 µM (inactive) |
